Patent US20230321023A1, “APPLICATION OF REGULATION OF EYE SCLERA LIPID METABOLISM TO INHIBIT MYOPIA” (Wenzhou Medical University, priority 2020, published 2023)

Experiments:
FD myopia [1] = test: FD myopia in guinea pigs, peribulbar injection of DHA, EPA or atropine; format: in vivo, guinea pig; conditions: 2 weeks; for reduction of myopia progression vs Vehicle group: high dose 3.0 μg/day
Procedure: (§1) The test animals were British tricolored short-haired guinea pigs aged 3 weeks. The animals were subjected to monocular form deprivation (FD) by a mask method and were randomly divided into 6 groups, which were treated by peribulbar injection with the following different substances: (1) ethanol solvent group (Vehicle); (2) low-dose DHA group (1.0 μg); (3) high-dose DHA group (3.0 μg): (4) low-dose EPA group (1.0 μg); (5) high-dose EPA group (3.0 μg); and (6) 0.1% atropine group.
The measurement methods of refraction, vitreous chamber depth and eye axis length were the same as those in Example 2.

[2] = Allergy study, periocular injection in FD animals; format: in vivo; conditions: high-purity DHA 3.0 μg or DHA 3.0 μg+EPA 3.0 μg, 100 μL daily periocular, 2 weeks
Procedure: Animals were randomly divided into three groups: FD+cod liver oil (commercially available ω-3 polyunsaturated fatty acids) group; FD+high-purity drug group 1 (FD+DHA 3.0 μg); and FD+high-purity drug group 2 (FD+“DHA 3.0 μg+EPA 3.0 μg”), and both high-purity drug groups were at a high dose.
After applying a topical anesthetic (one drop of 0.5% propazocaine hydrochloride, Alcon Laboratories, Inc., Puurs, Belgium), 100 μL of drug was daily administered at the surrounding area of FD eyeballs at 9:00 a.m., continuing for 2 weeks. All injections were completed within 10 seconds under dark red light to minimize any possible impact of red light on induced myopic recovery.

FD myopia [3] = test: Optimal treatment scheme: peribulbar DHA/EPA formulations in young guinea pig models with FD myopia; format: in vivo; parameters: Vitreous chamber depth (difference between experimental eye and fellow eye): unit not given here; conditions: FD guinea pigs, total mass 3 μg; for Eye axis length (difference between experimental eye and fellow eye): in mm (unit assumed); for Myopia inhibition rate: 1 W vs Veh
From the text: The optimal treatment protocol or scheme applying ω-3 by means by of feeding and peribulbar injection were investigated, respectively, and some critical findings were shown, especially when the eye was subjected to topical administration, unexpected results were obtained by using DHA alone or a composition of DHA and EPA. The basic experimental procedures were as described above.
However, as the content of EPA increases to become the predominant component (i.e., DHA:EPA<1:1), the efficacy of the mixture of DHA and EPA (the total mass of ocular topical administration is 3 μg in each case) is even better than that of DHA alone, EPA alone, or a mixture of DHA and EPA containing DHA as the main component (i.e., DHA:EPA>1:1, for example, […]) and is statistically significant (Table 1 and FIG. 12). It can be seen that the mixture of DHA and EPA that uses EPA as the predominant component or the predominant active ingredient has the optimal inhibition effect of myopia and myopia-related symptoms. Overall, all the treatment protocols in this example are very effective in inhibiting the negative refraction, eye axis elongation, and vitreous cavity depth increase.

[4] = Safety test, peribulbar injection of DHA; format: in vivo, guinea pig; conditions: peribulbar DHA alone, up to 3 μg/day, vs Vehicle control
Procedure: as §1

CN1[C@@H]2CC[C@H]1C[C@@H](OC(=O)C(CO)c1ccccc1)C2 (stereo partly drawn) [Atropine, atropine, reference compound]
reduced myopia rate (positive control) (FD myopia [1]; 0.1% atropine): 35.6%

CC/C=C\C/C=C\C/C=C\C/C=C\C/C=C\C/C=C\CCC(=O)O [DHA, docosahexaenoic acid]
adverse reactions such as allergies [2]: no adverse reactions such as allergies | Refraction (difference between experimental eye and fellow eye) (FD myopia [3]; 0 W): −0.23 | Vitreous chamber depth (difference between experimental eye and fellow eye) (FD myopia [3]; 0 W): 0.00 | Eye axis length (difference between experimental eye and fellow eye) (FD myopia [3]; 0 W): −0.01 | Myopia inhibition rate (FD myopia [3]): 31.8% | Refraction (difference between experimental eye and fellow eye) (FD myopia [3]; 1 W): −2.95 | Vitreous chamber depth (difference between experimental eye and fellow eye) (FD myopia [3]; 1 W): 0.06 | Eye axis length (difference between experimental eye and fellow eye) (FD myopia [3]; 1 W): 0.06 | reduction of myopia progression vs Vehicle group (FD myopia [1]): 35.3% | ACD (anterior chamber depth) [4]: no significant ocular differences | LT (lens thickness) [4]: no significant ocular differences | body weight [4]: no significant ocular differences

CC/C=C\C/C=C\C/C=C\C/C=C\C/C=C\CCCC(=O)O [EPA, eicosapentaenoic acid]
Refraction (difference between experimental eye and fellow eye) (FD myopia [3]; 0 W): −0.40 | Vitreous chamber depth (difference between experimental eye and fellow eye) (FD myopia [3]; 0 W): 0.00 | Eye axis length (difference between experimental eye and fellow eye) (FD myopia [3]; 0 W): 0.01 | Myopia inhibition rate (FD myopia [3]): 21.0% | Refraction (difference between experimental eye and fellow eye) (FD myopia [3]; 1 W): −3.42 | Vitreous chamber depth (difference between experimental eye and fellow eye) (FD myopia [3]; 1 W): 0.07 | Eye axis length (difference between experimental eye and fellow eye) (FD myopia [3]; 1 W): 0.07 | reduction of myopia progression vs Vehicle group (FD myopia [1]): 29.6%
